The values that follow come from patent US20130252935A1, “Monobactams” (PFIZER INC., priority 2010, published 2013).

Common to all, as to format: cell-based
Experiment [1] deals with Pseudomonas aeruginosa UC-12120. The experiment in a line: minimum inhibitory concentration (MIC) testing according to CLSI guidelines, Pseudomonas aeruginosa. The following applies: UC-12120, wild-type, labeled as 1091-05, overnight incubation, lower of duplicate values; for MIC: Pseudomonas aeruginosa, UC12120, read-out: AB-MBT: Pseudomonas aeruginosa 1091-05: MIC (MstRcn). Summed up:
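Broth dilution MIC per CLSI guidelines against wild-type P. aeruginosa UC-12120 (1091-05), using 2-fold drug dilutions and overnight incubation with visual reading of lowest growth-inhibiting concentration. Tested in duplicate; lower value reported when within 2-fold, with control organisms and reference compounds for quality control.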

Experiment [2] deals with Acinetobacter baumannii/haemolyticus AB-3167. The experiment in a line: minimum inhibitory concentration (MIC) testing according to CLSI guidelines, Acinetobacter. The following applies: multidrug-resistant clinical isolate AB-3167, overnight incubation, lower of duplicate values; for MIC: Acinetobacter baumannii, read-out: AB-MBT: Acinetobacter baumanii AB-3167: MIC (MstRcnt). An outline of the steps: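 Broth dilution MIC per CLSI M7-A8/M100-S20 against multidrug-resistant clinical isolate AB-3167, using 2-fold drug dilutions and overnight incubation; MIC is the lowest concentration without visible growth. Duplicates within 2-fold reported as the lower value, with control strains and reference compounds in range.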

Experiment [3] relates to Klebsiella pneumoniae 1000-02. The experiment in a line: minimum inhibitory concentration (MIC) testing according to CLSI guidelines, Klebsiella pneumoniae. The following applies: ciprofloxacin-resistant, ESBL-expressing clinical isolate 1000-02, overnight incubation, lower of duplicate values; for MIC: Klebsiella pneumoniae, read-out: AB-MBT: Klebsiella pneumoniae 1000-02: MIC (MstRcnt). Summed up: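 MIC by CLSI broth dilution with 2-fold concentration steps and overnight incubation; lowest concentration visibly inhibiting growth versus drug-free control. Ciprofloxacin-resistant, ESBL-expressing clinical isolate 1000-02. Run in duplicate, lower value reported when within 2-fold, with QC organisms and reference compounds per run.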

Values after ≈ are worked out from the molar mass of the structure shown.

As usually defined, the MIC is the lowest concentration that inhibits growth of the organism. As for `CC(C)(O/N=C(\C(=O)N[C@@H]1C(=O)N(S(=O)(=O)O)[C@@H]1COC(=O)c1cc(-c2cc(=O)c(O)cn2O)no1)c1csc(N)n1)C(=O)O` [Example 13, 2-({[(1Z)-1-(2-amino-1,3-thiazol-4-yl)-2-({(2S,3S)-2-[({[3-(1,5-dihydroxy-4-oxo-1,4-dihydropyridin-2-yl)isoxazol-5-yl]carbonyl}oxy)methyl]-4-oxo-1-sulfoazetidin-3-yl}amino)-2-oxoethylidene]amino}oxy)-2-methylpropanoic acid], the figures for the MIC in experiment [1], in experiment [2] and in experiment [3] were 0.25 µg/mL (≈ 0.372 µM), 0.5 µg/mL (≈ 0.745 µM) and 0.125 µg/mL (≈ 0.186 µM), respectively.
The matching figures for `C[C@H](O/N=C(\C(=O)N[C@@H]1C(=O)N(S(=O)(=O)O)[C@@H]1CNC(=O)NCc1cc(=O)c(O)cn1O)c1nc(N)sc1Cl)C(=O)O` [Example 34, (2S)-2-({[(1Z)-1-(2-amino-5-chloro-1,3-thiazol-4-yl)-2-({(2R,3S)-2-[({[(1,5-dihydroxy-4-oxo-1,4-dihydropyridin-2-yl)methyl]carbamoyl}amino)methyl]-4-oxo-1-sulfoazetidin-3-yl}amino)-2-oxoethylidene]amino}oxy)propanoic acid]: 0.125 µg/mL (≈ 0.191 µM), 0.25 µg/mL (≈ 0.383 µM) and 0.5 µg/mL (≈ 0.766 µM).
Consider `CC(C)(O/N=C(\C(=O)N[C@@H]1C(=O)N(S(=O)(=O)[O-])[C@@H]1CNC(=O)c1coc(-c2cc(=O)c(O)cn2O)n1)c1csc(N)n1)C(=O)[O-].[Na+].[Na+]` [Example 17, 2-({[(1Z)-1-(2-amino-1,3-thiazol-4-yl)-2-({(2R,3S)-2-[({[2-(1,5-dihydroxy-4-oxo-1,4-dihydropyridin-2-yl)-1,3-oxazol-4-yl]carbonyl}amino)methyl]-4-oxo-1-sulfoazetidin-3-yl}amino)-2-oxoethylidene]amino}oxy)-2-methylpropanoic acid, bis sodium salt], for which the “AB-MBT: Pseudomonas aeruginosa 1091-05: MIC (MstRcn)” value in experiment [1] turned out to be 0.125 µg/mL. In experiment [2], the “AB-MBT: Acinetobacter baumanii AB-3167: MIC (MstRcnt)” value came out at 1.00 µg/mL. The “AB-MBT: Klebsiella pneumoniae 1000-02: MIC (MstRcnt)” value in experiment [3] was found to be 1.00 µg/mL.
`Nc1nc(/C(=N/OC2(C(=O)O)CCC2)C(=O)N[C@@H]2C(=O)N(S(=O)(=O)O)[C@@H]2CNC(=O)C(=O)NCc2cc(=O)c(O)cn2O)cs1` [Example 65, 1-({[(1Z)-1-(2-amino-1,3-thiazol-4-yl)-2-{[(2R,3S)-2-({[{[(1,5-dihydroxy-4-oxo-1,4-dihydropyridin-2-yl)methyl]amino}(oxo)acetyl]amino}methyl)-4-oxo-1-sulfoazetidin-3-yl]amino}-2-oxoethylidene]amino}oxy)cyclobutanecarboxylic acid]: the minimal inhibitory concentration (MIC) in experiment [1] was found to be 0.06 µg/mL (≈ 0.0892 µM); in experiment [2], 0.125 µg/mL (≈ 0.186 µM); in experiment [3] it was 0.25 µg/mL (≈ 0.372 µM).
As for `Nc1nc(/C(=N/OC2(C(=O)O)CCCC2)C(=O)N[C@@H]2C(=O)N(S(=O)(=O)O)[C@@H]2CNC(=O)c2cc(=O)c(O)cn2O)cs1` [Example 66, 1-({[(1Z)-1-(2-amino-1,3-thiazol-4-yl)-2-{[(2R,3S)-2-({[(1,5-dihydroxy-4-oxo-1,4-dihydropyridin-2-yl)carbonyl]amino}methyl)-4-oxo-1-sulfoazetidin-3-yl]amino}-2-oxoethylidene]amino}oxy)cyclopentanecarboxylic acid], the minimal inhibitory concentration (MIC) in experiment [1] was determined as 0.5 µg/mL (≈ 0.794 µM); in experiment [2] it was 0.5 µg/mL (≈ 0.794 µM); in experiment [3], 0.125 µg/mL (≈ 0.199 µM).
On to `CC(C)(O/N=C(\C(=O)N[C@@H]1C(=O)N(S(=O)(=O)O)[C@@H]1CNC(=O)NCc1cc(=O)c(O)cn1O)c1nsc(N)n1)C(=O)O` [Example 33, 2-({[(1Z)-1-(5-amino-1,2,4-thiadiazol-3-yl)-2-({(2R,3S)-2-[({[(1,5-dihydroxy-4-oxo-1,4-dihydropyridin-2-yl)methyl]carbamoyl}amino)methyl]-4-oxo-1-sulfoazetidin-3-yl}amino)-2-oxoethylidene]amino}oxy)-2-methylpropanoic acid], for which the figures for the minimal inhibitory concentration (MIC) in experiment [1], in experiment [2] and in experiment [3] were 0.25 µg/mL (≈ 0.395 µM), 0.5 µg/mL (≈ 0.789 µM) and 2 µg/mL (≈ 3.16 µM), respectively.
For `CC(C)(O/N=C(\C(=O)N[C@@H]1C(=O)N(S(=O)(=O)O)[C@@H]1CNC(=O)c1cnc(-c2cc(=O)c(O)c[nH]2)nc1)c1csc(N)n1)C(=O)O` [Example 24, 2-({[(1Z)-1-(2-amino-1,3-thiazol-4-yl)-2-({(2R,3S)-2-[({[2-(5-hydroxy-4-oxo-1,4-dihydropyridin-2-yl)pyrimidin-5-yl]carbonyl}amino)methyl]-4-oxo-1-sulfoazetidin-3-yl}amino)-2-oxoethylidene]amino}oxy)-2-methylpropanoic acid], the results for the minimum inhibitory concentration (MIC) in experiment [1], in experiment [2] and in experiment [3] were 1 µg/mL (≈ 1.5 µM), 2 µg/mL (≈ 3 µM) and 16 µg/mL (≈ 24 µM), respectively.
The matching figures for `CC(C)(O/N=C(\C(=O)N[C@@H]1C(=O)N(S(=O)(=O)O)[C@@H]1CNC(=O)CNC(=O)c1cc(=O)c(O)cn1O)c1csc(N)n1)C(=O)O` [Example 36, 2-({[(1Z)-1-(2-amino-1,3-thiazol-4-yl)-2-({(2R,3S)-2-[({N-[(1,5-dihydroxy-4-oxo-1,4-dihydropyridin-2-yl)carbonyl]glycyl}amino)methyl]-4-oxo-1-sulfoazetidin-3-yl}amino)-2-oxoethylidene]amino}oxy)-2-methylpropanoic acid]: 0.125 µg/mL (≈ 0.189 µM), 0.25 µg/mL (≈ 0.378 µM) and 1 µg/mL (≈ 1.51 µM).
Regarding `CC(C)(O/N=C(\C(=O)N[C@@H]1C(=O)N(S(=O)(=O)O)[C@@H]1CNS(=O)(=O)c1cccc(C(=O)NCc2cc(=O)c(O)cn2O)c1)c1csc(N)n1)C(=O)O` [Example 68, 2-({[(1Z)-1-(2-amino-1,3-thiazol-4-yl)-2-{[(2R,3S)-2-({[(3-{[(1,5-dihydroxy-4-oxo-1,4-dihydropyridin-2-yl)methyl]carbamoyl}phenyl)sulfonyl]amino}methyl)-4-oxo-1-sulfoazetidin-3-yl]amino}-2-oxoethylidene]amino}oxy)-2-methylpropanoic acid], the MIC in experiment [1] was 4 µg/mL (≈ 5.18 µM); in experiment [2], 4 µg/mL (≈ 5.18 µM); in experiment [3], 1 µg/mL (≈ 1.29 µM).
Regarding `CC(C)(O/N=C(\C(=O)N[C@@H]1C(=O)N(S(=O)(=O)O)[C@@H]1COC(=O)c1cc(-c2cc(=O)c(O)c[nH]2)no1)c1csc(N)n1)C(=O)O` [Example 12, 2-({[(1Z)-1-(2-amino-1,3-thiazol-4-yl)-2-({(2S,3S)-2-[({[3-(5-hydroxy-4-oxo-1,4-dihydropyridin-2-yl)isoxazol-5-yl]carbonyl}oxy)methyl]-4-oxo-1-sulfoazetidin-3-yl}amino)-2-oxoethylidene]amino}oxy)-2-methylpropanoic acid], the MIC in experiment [1] was determined as 4 µg/mL (≈ 6.1 µM); in experiment [2], 16 µg/mL (≈ 24.4 µM); in experiment [3], 0.25 µg/mL (≈ 0.381 µM).
Turning to `CC(C)(O/N=C(\C(=O)N[C@@H]1C(=O)N(S(=O)(=O)O)[C@@H]1CNC(=O)C(=O)NCC1=CC(=O)C(O)=CC1O)c1csc(N)n1)C(=O)O` (stereo partly drawn) [Example 41, 2-({[(1Z)-1-(2-amino-1,3-thiazol-4-yl)-2-{[(2R,3S)-2-({[{[(4,6-dihydroxy-3-oxocyclohexa-1,4-dien-1-yl)methyl]amino}(oxo)acetyl]amino}methyl)-4-oxo-1-sulfoazetidin-3-yl]amino}-2-oxoethylidene]amino}oxy)-2-methylpropanoic acid], the MIC in experiment [1] is 0.06 µg/mL (≈ 0.091 µM); in experiment [2] it was 0.25 µg/mL (≈ 0.379 µM); in experiment [3], 0.5 µg/mL (≈ 0.758 µM).
The matching figures for `CC(C)(O/N=C(\C(=O)N[C@@H]1C(=O)N(S(=O)(=O)O)[C@@H]1COC(=O)c1csc(-c2cc(=O)c(O)c[nH]2)n1)c1csc(N)n1)C(=O)O` [Example 19, 2-({[(1Z)-1-(2-amino-1,3-thiazol-4-yl)-2-({(2S,3S)-2-[({[2-(5-hydroxy-4-oxo-1,4-dihydropyridin-2-yl)-1,3-thiazol-4-yl]carbonyl}oxy)methyl]-4-oxo-1-sulfoazetidin-3-yl}amino)-2-oxoethylidene]amino}oxy)-2-methylpropanoic acid]: 0.5 µg/mL (≈ 0.744 µM), 1 µg/mL (≈ 1.49 µM) and 1 µg/mL (≈ 1.49 µM).
In the case of `Nc1nc(/C(=N/OC2(C(=O)O)CCC2)C(=O)N[C@@H]2C(=O)N(S(=O)(=O)O)[C@@H]2CNC(=O)NCc2cc(=O)c(O)cn2O)cs1` [Example 30, 1-({[(1Z)-1-(2-amino-1,3-thiazol-4-yl)-2-({(2R,3S)-2-[({[(1,5-dihydroxy-4-oxo-1,4-dihydropyridin-2-yl)methyl]carbamoyl}amino)methyl]-4-oxo-1-sulfoazetidin-3-yl}amino)-2-oxoethylidene]amino}oxy)cyclobutanecarboxylic acid], the MIC in experiment [1] stood at 0.125 µg/mL (≈ 0.194 µM); in experiment [2], 0.25 µg/mL (≈ 0.388 µM); in experiment [3], 0.125 µg/mL (≈ 0.194 µM).
`CC(C)(O/N=C(\C(=O)N[C@@H]1C(=O)N(S(=O)(=O)O)[C@@H]1CNS(=O)(=O)NCc1cc(=O)c(O)cn1O)c1csc(N)n1)C(=O)O` [Example 37, 2-({[(1Z)-1-(2-amino-1,3-thiazol-4-yl)-2-{[(2R,3S)-2-{[({[(1,5-dihydroxy-4-oxo-1,4-dihydropyridin-2-yl)methyl]amino}sulfonyl)amino]methyl}-4-oxo-1-sulfoazetidin-3-yl]amino}-2-oxoethylidene]amino}oxy)-2-methylpropanoic acid]: the minimal inhibitory concentration (MIC) in experiment [1] was determined as 1 µg/mL (≈ 1.5 µM); in experiment [2], 2 µg/mL (≈ 2.99 µM); in experiment [3], 4 µg/mL (≈ 5.98 µM).
